# According to patent US7358276B2, “2-Oxo-1-pyrrolidine derivatives, processes for preparing them and their uses” (UCB, S.A., priority 2000, dated 2008):
# How the values were obtained:
# [1] = molecular target: T1, Levetiracetam Binding Site (LBS), rat cerebral cortex membranes (Rattus norvegicus, UniProt Q02563); assay: LBS binding assay (competitive binding, [3H]-2-[4-(3-azidophenyl)-2-oxo-1-pyrrolidinyl]butanamide); conditions: 4° C., 120 min
# T1 construct: The crude membrane pellet obtained is resuspended in 50 mmol/l Tris-HCl (pH 7.4); from tissue; host or cells: rat cerebral cortex crude membranes (male Sprague-Dawley)
# T1 sequence (Q02563 whole entry): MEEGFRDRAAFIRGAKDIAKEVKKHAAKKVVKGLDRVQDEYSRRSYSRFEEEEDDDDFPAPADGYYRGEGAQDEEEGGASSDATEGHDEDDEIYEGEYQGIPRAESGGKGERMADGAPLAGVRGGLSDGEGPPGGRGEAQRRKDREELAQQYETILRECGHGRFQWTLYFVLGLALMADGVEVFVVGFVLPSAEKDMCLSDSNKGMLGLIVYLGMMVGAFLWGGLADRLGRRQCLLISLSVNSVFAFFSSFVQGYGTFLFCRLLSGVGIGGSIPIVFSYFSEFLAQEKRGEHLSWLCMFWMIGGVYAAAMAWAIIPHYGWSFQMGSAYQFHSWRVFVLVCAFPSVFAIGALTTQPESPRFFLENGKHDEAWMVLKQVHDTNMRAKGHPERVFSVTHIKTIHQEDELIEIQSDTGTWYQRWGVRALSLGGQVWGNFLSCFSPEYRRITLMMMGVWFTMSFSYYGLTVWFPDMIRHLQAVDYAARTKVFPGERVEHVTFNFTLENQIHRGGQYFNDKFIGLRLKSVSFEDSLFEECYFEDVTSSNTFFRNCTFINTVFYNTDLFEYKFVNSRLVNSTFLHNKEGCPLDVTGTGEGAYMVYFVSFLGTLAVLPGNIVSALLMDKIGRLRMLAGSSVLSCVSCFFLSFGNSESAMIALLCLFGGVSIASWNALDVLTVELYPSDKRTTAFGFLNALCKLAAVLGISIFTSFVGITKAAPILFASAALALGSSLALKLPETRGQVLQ
# [2] = test system: audiogenic seizures in sound-susceptible mice; assay: Animal model of sound-susceptible mice (audiogenic seizures); format: in vivo; conditions: intraperitoneally 60 minutes before induction of audiogenic seizures; doses given in mol/kg
# Source text: The activity of the compounds of formula I, or their pharmaceutically acceptable salts, as anticonvulsants can be determined in the audiogenic seizures model. The objective of this test is to evaluate the anticonvulsant potential of a compound by means of audiogenic seizures induced in sound-susceptible mice, a genetic animal model with reflex seizures. In this model of primary generalised epilepsy, seizures are evoked without electrical or chemical stimulation and the seizure types are, at least in part, similar in their clinical phenomenology to seizures occurring in man (Löscher W. & Schmidt D., Epilepsy Res. (1998), 2, p. 145-181; Buchhalter J. R., Epilepsia (1993), 34, S31-S41). Results obtained with compounds of formula I are indicative of a strong pharmacological effect.
# The objective of this test is to evaluate the anticonvulsant potency of a compound in sound-susceptible mice, a genetic animal model with reflex seizures. In this model of primary generalised epilepsy, seizures are evoked without electrical or chemical stimulation and the seizure types are, at least in part, similar in their clinical phenomenology to seizures occuring in man (Löscher W. & Schmidt D., Epilepsy Res. (1998), 2, 145-181; Buchhalter J. R., Epilepsia (1993), 34, S31-S41).
# Male or female genetically sound-sensitive mice (14-28 g; N=10), derived from a DBA strain originally selected by Dr. Lehmann of the Laboratory of Acoustic Physiology (Paris) and bred in the UCB Pharma Sector husbandry unit since 1978, are used. The experimental design consisted of several groups, one group receiving the vehicle control and the other groups different doses of the test-compound. The compounds are administered intraperitoneally 60 minutes before the induction of audiogenic seizures.
# For testing, the animals are placed in small cages, one mouse per cage, in a sound-attenuated chamber. After a period of orientation of 30 seconds, the acoustic stimulus (90 dB, 10-20 kHz) is delivered for 30 seconds via loudspeakers positioned above each cage. During this interval, the mice are observed and the presence of the 3 phases of the seizure activity namely wild running, clonic and tonic convulsions, is recorded. The proportion of mice protected against wild running, clonic and tonic convulsions, respectively, is calculated.
# For active compounds, an ED50 value, i.e. the dose producing 50% protection relative to the control group, together with 95% confidence limits, was calculated using a Probit Analysis (SAS/STAT® Software, version 6.09, PROBIT procedure) of the proportions of protected mice for each of the 3 phases of the seizure activity.
Compound,melting point [°C],pKi (affinity for the levetiracetam binding site) [1],ED50 (dose producing 50% protection against audiogenic seizures) [2]
CC[C@@H](C(N)=O)N1CC(CF)CC1=O (stereo partly drawn),87.1,,
CC[C@H](C(N)=O)N1CC(c2cccs2)CC1=O (stereo partly drawn),84,,
"CC[C@@H](C(N)=O)N1CC(c2cccc(N=[N+]=[N-])c2)CC1=O (single isomer, unassigned) [Compound 86]",94.5,Particular affinity,Particularly promising activity
CC[C@@H](C(N)=O)N1CC(C)CC1=O (stereo partly drawn) [35],73.9,,
CC[C@@H](C(N)=O)N1CC(C)CC1=O (stereo partly drawn) [36],56.9,,
"CC[C@@H](C(N)=O)N1CC(CI)CC1=O (stereo partly drawn) [Compound 10, (2S)-2-[4-(iodomethyl)-2-oxo-1-pyrrolidinyl]butanamide]",91.4,Particular affinity,Particularly promising activity
CC[C@@H](C(N)=O)N1CC(c2ccccc2)CC1=O (stereo partly drawn) [Compound 22],89,Particular affinity,Particularly promising activity
CC[C@@H](C(N)=O)N1CC(c2ccccc2)CC1=O (stereo partly drawn) [Compound 23],92.4,Particular affinity,Particularly promising activity
CC[C@@H](C(N)=O)N1CC(CI)CC1=O (stereo partly drawn) [Compound 27],107.7,Particular affinity,Particularly promising activity
"CC[C@@H](C(N)=O)N1CC(CN=[N+]=[N-])CC1=O (stereo partly drawn) [Compound 32, (2S)-2-[4-(azidomethyl)-2-oxo-1-pyrrolidinyl]butanamide]",84.8,Particular affinity,Particularly promising activity
CCC(C(N)=O)N1CC(C=C(Br)Br)CC1=O (stereo not drawn) [Compound 33],134.8,Particular affinity,Particularly promising activity
"CC[C@@H](C(N)=O)N1CC(Cn2cnnn2)CC1=O (stereo partly drawn) [Compound 40, (2S)-2-[2-oxo-4-(1H-tetrazol-1-ylmethyl)-1-pyrrolidinyl]butanamide]",82.3,Particular affinity,Particularly promising activity
C=CC1CC(=O)N(C(CC)C(N)=O)C1 (stereo not drawn) [Compound 41],120.5,Particular affinity,Particularly promising activity
CCC(C(N)=O)N1CC(c2nccs2)CC1=O (stereo not drawn) [Compound 64],94.3,Particular affinity,Particularly promising activity
"CC[C@@H](C(N)=O)N1CC(c2cccs2)CC1=O (stereo partly drawn) [Compound 71, (2S)-2-[2-oxo-4-(2-thienyl)-1-pyrrolidinyl]butanamide]",69.3,Particular affinity,Particularly promising activity
CC[C@@H](C(N)=O)N1CC(c2ccccc2OC)CC1=O (stereo partly drawn) [Compound 73],112,Particular affinity,
CC[C@@H](C(N)=O)N1CC(c2cccc(OC)c2)CC1=O (stereo partly drawn) [Compound 75],91.3,Particular affinity,
CC[C@@H](C(N)=O)N1CC(c2ccc(N=[N+]=[N-])cc2)CC1=O (stereo partly drawn) [Compound 81],91.4,Particular affinity,Particularly promising activity
CC[C@@H](C(N)=O)N1CC(c2ccsc2)CC1=O (stereo partly drawn) [Compound 83],93 to 95,Particular affinity,

Compound,melting point [°C],pKi (affinity for the levetiracetam binding site) [1],ED50 (dose producing 50% protection against audiogenic seizures) [2]
CC[C@@H](C(N)=O)N1CC(c2cccc(N=[N+]=[N-])c2)CC1=O (stereo partly drawn) [Compound 87],98,Particular affinity,Particularly promising activity
C=C[C@@H]1CC(=O)N([C@@H](CC)C(N)=O)C1 [Compound 92],79,Particular affinity,Particularly promising activity
CCC(C(N)=O)N1CC(CI)CC1=O (stereo not drawn) [Compound 103],171.7,Particular affinity,
CCC(C(N)=O)N1CC(C=C(F)F)CC1=O (stereo not drawn) [Compound 156],,Particular affinity,Particularly promising activity
CCC(C(N)=O)N1CC(CC2CC2)CC1=O (stereo not drawn) [Compound 165],,Particular affinity,Particularly promising activity
CC[C@@H](C(N)=O)N1CC(CCc2ccccc2)CC1=O (stereo partly drawn) [Compound 175],89.5,Particular affinity,
CC[C@@H](C(N)=O)N1CC(CCc2ccccc2)CC1=O (stereo partly drawn) [Compound 176],100.2,Particular affinity,
CCC(C(N)=O)N1CC(c2cc(C(F)(F)F)cc(C(F)(F)F)c2)CC1=O (stereo not drawn) [Compound 185],148.6,Particular affinity,
CCC(C(N)=O)N1CC(c2ccco2)CC1=O (stereo not drawn) [Compound 195],,Particular affinity,Particularly promising activity
CCC(C(N)=O)N1CC(c2ccco2)CC1=O (stereo not drawn) [Compound 196],,Particular affinity,Particularly promising activity
CCCC1CC(=O)N(C(CC)C(N)=O)C1 (stereo not drawn) [Compound 201],,Particular affinity,Particularly promising activity
"CC[C@@H](C(N)=O)N1CC(C=C(F)F)CC1=O (stereo partly drawn) [Compound 213, (2S)-2-(2-oxo-4-(2,2-difluorovinyl)-1-pyrrolidinyl)butanamide]",,Particular affinity,Particularly promising activity
"CC[C@@H](C(N)=O)N1CC(n2cccc2Br)CC1=O (stereo partly drawn) [Compound 234, (2S)-2-[4-(2-bromo-1H-pyrrol-1-yl)-2-oxo-1-pyrrolidinyl]butanamide]",,Particular affinity,Particularly promising activity
"CCC(C(N)=O)N1C[C@H](CC(C)(F)F)CC1=O (stereo partly drawn) [Compound 265, 2-[(4S)-4-(2,2-difluoropropyl)-2-oxopyrrolidinyl]butanamide]",110.9,Particular affinity,
"CCC(C(N)=O)N1CC(C#CBr)CC1=O (stereo not drawn) [Compound 267, 2-(4-bromo-ethynyl-2-oxo-1-pyrrolidinyl)butanamide]",103.9,Particular affinity,
"(2S)-2-(2-oxo-4-(2,2-difluorovinyl)-1-pyrrolidinyl)butanamide [Compound 222]",,Particular affinity,Particularly promising activity
(2S)-2-[4-(iodomethyl)-2-oxo-1-pyrrolidinyl]propanamide [Compound 110],,Particular affinity,Particularly promising activity
(2S)-2-[4-(iodomethyl)-2-oxo-pyrrolidin-1-yl]pentanamide [Compound 105],,Particular affinity,Particularly promising activity
